Values of other authors, collected in patent US11000540B1, “Treatment for reducing adverse events including chemotherapy discomfort and other conditions” (priority 2019, dated 2021).

Conditions: buffer pair acid/conjugate base

| Compound | pKa of Acid (or pH of 1:1 mixture) |
| --- | --- |
| O=S(=O)(O)CCNC1CCCCC1 [N-Cyclohexy1-2-aminoethanesuifonic acid] | 9.3 |
| Boric Acid [Boric Acid/Borate] | 9.0 |
| Tris(hydroxymethyl)aminomethane | 8.2 |
| NCC(=O)O [Glycine/Glycine anion, Glycine] | 9.60 |
